Structures are written as SMILES.

For this assay, the target named is human PAD4 (Homo sapiens (Human), UniProt Q9UM07). The assay is described as follows: In Vitro PAD4 BAEE Biochemical Assay. The note with it: human PAD4, BAEE substrate; 5 nM PAD4, 2 mM calcium chloride, 3 mM BAEE; geometric mean of multiple experiments. Summed up: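 Deimination of BAEE substrate (3 mM) measured as ammonia via o-phthalaldehyde–DTT isoindole fluorescence, 405/535 nm. Tag-free bacterially expressed human PAD4 at 5 nM with 2 mM calcium chloride, pH 7.6 MOPS buffer, 30 min compound preincubation then 2 h reaction, both at 25 °C.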
human PAD4, sequence (Q9UM07 2-663): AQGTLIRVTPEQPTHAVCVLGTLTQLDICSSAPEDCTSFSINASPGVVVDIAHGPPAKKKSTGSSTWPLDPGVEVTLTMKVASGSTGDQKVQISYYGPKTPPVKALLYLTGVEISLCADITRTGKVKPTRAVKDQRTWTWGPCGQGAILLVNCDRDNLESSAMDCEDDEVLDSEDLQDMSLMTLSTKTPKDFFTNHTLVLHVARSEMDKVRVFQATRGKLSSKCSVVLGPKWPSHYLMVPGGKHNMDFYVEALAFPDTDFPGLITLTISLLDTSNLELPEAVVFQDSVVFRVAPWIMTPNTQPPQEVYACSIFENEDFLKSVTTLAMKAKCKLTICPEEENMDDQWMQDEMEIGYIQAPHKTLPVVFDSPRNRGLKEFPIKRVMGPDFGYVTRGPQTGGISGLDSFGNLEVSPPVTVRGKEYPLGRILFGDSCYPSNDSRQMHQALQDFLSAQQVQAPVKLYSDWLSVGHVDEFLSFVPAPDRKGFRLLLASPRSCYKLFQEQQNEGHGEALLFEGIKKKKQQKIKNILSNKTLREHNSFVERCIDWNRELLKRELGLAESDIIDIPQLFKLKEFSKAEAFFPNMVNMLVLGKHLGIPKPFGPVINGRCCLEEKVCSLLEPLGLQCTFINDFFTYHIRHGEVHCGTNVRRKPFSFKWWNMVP
`COc1cc(C(=O)N2C[C@H](N)CCN2C)cc2nc(-c3cc4ccc([C@@H](C)NC(=O)C5(C(F)F)CC5)nc4n3CC3CC3)n(C)c12` [Example 191, N-((R)-1-(2-(5-((R)-5-amino-2-methylhexahydropyridazine-1-carbonyl)-7-methoxy-1-methyl-1H-benzo[d]imidazol-2-yl)-1-(cyclopropylmethyl)-1H-pyrrolo[2,3-b]pyridin-6-yl)ethyl)-1-(difluoromethyl)cyclopropane-1-carboxamide]: the IC50 (commonly the concentration needed to halve the response being measured) came out at 82.4 nM. Consider `COc1cc(C(=O)N2C[C@H](N)CCN2C)cc2nc(-c3cc4ccc([C@@H](C)NC(=O)C5(C(F)(F)F)CC5)nc4n3CC3CC3)n(C)c12` [Example 192, N-((R)-1-(2-(5-((R)-5-amino-2-methylhexahydropyridazine-1-carbonyl)-7-methoxy-1-methyl-1H-benzo[d]imidazol-2-yl)-1-(cyclopropylmethyl)-1H-pyrrolo[2,3-b]pyridin-6-yl)ethyl)-1-(trifluoromethyl)cyclopropane-1-carboxamide], for which the IC50 came out at 174 nM. As for `COc1cc(C(=O)N2C[C@H](N)CCN2C)cc2nc(-c3cc4ccc([C@@H](C)NC(=O)C5(CC(F)F)CC5)nc4n3CC3CC3)n(C)c12` [Example 193, N-((R)-1-(2-(5-((R)-5-amino-2-methylhexahydropyridazine-1-carbonyl)-7-methoxy-1-methyl-1H-benzo[d]imidazol-2-yl)-1-(cyclopropylmethyl)-1H-pyrrolo[2,3-b]pyridin-6-yl)ethyl)-1-(2,2-difluoroethyl)cyclopropane-1-carboxamide], the figure is 142 nM; as for `COc1cc(C(=O)N2C[C@H](N)CCN2C)cc2nc(-c3cc4ccc([C@@H](C)NC(=O)c5ccccc5C)nc4n3CC3CC3)n(C)c12` [Example 194, N-((R)-1-(2-(5-((R)-5-amino-2-methylhexahydropyridazine-1-carbonyl)-7-methoxy-1-methyl-1H-benzo[d]imidazol-2-yl)-1-(cyclopropylmethyl)-1H-pyrrolo[2,3-b]pyridin-6-yl)ethyl)-2-methylbenzamide], 123 nM.

`COc1cc(C(=O)N2C[C@H](N)CCN2C)cc2nc(-c3cc4ccc([C@@H](C)NC(=O)c5ccc(F)cc5C)nc4n3CC3CC3)n(C)c12` [Example 195, N-((R)-1-(2-(5-((R)-5-amino-2-methylhexahydropyridazine-1-carbonyl)-7-methoxy-1-methyl-1H-benzo[d]imidazol-2-yl)-1-(cyclopropylmethyl)-1H-pyrrolo[2,3-b]pyridin-6-yl)ethyl)-4-fluoro-2-methylbenzamide]: the IC50 was 102 nM. As for `COc1cc(C(=O)N2C[C@H](N)CCN2C)cc2nc(-c3cc4ccc([C@@H](C)NC(=O)c5ccccc5C(F)(F)F)nc4n3CC3CC3)n(C)c12` [Example 196, N-((R)-1-(2-(5-((R)-5-amino-2-methylhexahydropyridazine-1-carbonyl)-7-methoxy-1-methyl-1H-benzo[d]imidazol-2-yl)-1-(cyclopropylmethyl)-1H-pyrrolo[2,3-b]pyridin-6-yl)ethyl)-2-(trifluoromethyl)benzamide], the figure is 129 nM. As for `COc1cc(C(=O)N2C[C@H](N)CCN2C)cc2nc(-c3cc4ccc([C@@H](C)NC(=O)c5cc(F)ccc5C)nc4n3CC3CC3)n(C)c12` [Example 197, N-((R)-1-(2-(5-((R)-5-amino-2-methylhexahydropyridazine-1-carbonyl)-7-methoxy-1-methyl-1H-benzo[d]imidazol-2-yl)-1-(cyclopropylmethyl)-1H-pyrrolo[2,3-b]pyridin-6-yl)ethyl)-5-fluoro-2-methylbenzamide], the concentration for half-maximal inhibition (IC50) came to 116 nM.

As for `COc1cc(C(=O)N2C[C@H](N)CCN2C)cc2nc(-c3cc4ccc([C@@H](C)NC(=O)c5c(F)cccc5C(F)(F)F)nc4n3CC3CC3)n(C)c12` [Example 198, N-((R)-1-(2-(5-((R)-5-amino-2-methylhexahydropyridazine-1-carbonyl)-7-methoxy-1-methyl-1H-benzo[d]imidazol-2-yl)-1-(cyclopropylmethyl)-1H-pyrrolo[2,3-b]pyridin-6-yl)ethyl)-2-fluoro-6-(trifluoromethyl)benzamide], the half-inhibitory concentration (IC50) came out at 166 nM. To `COc1cc(C(=O)N2C[C@H](N)CCN2C)cc2nc(-c3cc4ccc([C@@H](C)NC(=O)C5(c6ccc(F)cc6)CC5)nc4n3CC3CC3)n(C)c12` [Example 199, N-((R)-1-(2-(5-((R)-5-amino-2-methylhexahydropyridazine-1-carbonyl)-7-methoxy-1-methyl-1H-benzo[d]imidazol-2-yl)-1-(cyclopropylmethyl)-1H-pyrrolo[2,3-b]pyridin-6-yl)ethyl)-1-(4-fluorophenyl)cyclopropane-1-carboxamide] belongs 340 nM; to `COc1cc(C(=O)N2C[C@H](N)CCN2C)cc2nc(-c3cc4ccc([C@@H](C)NC(=O)C5(C)CC5)nc4n3CC3CC3)n(C)c12` [Example 200, N-((R)-1-(2-(5-((R)-5-amino-2-methylhexahydropyridazine-1-carbonyl)-7-methoxy-1-methyl-1H-benzo[d]imidazol-2-yl)-1-(cyclopropylmethyl)-1H-pyrrolo[2,3-b]pyridin-6-yl)ethyl)-1-methylcyclopropane-1-carboxamide], 64.2 nM; to `COc1cc(C(=O)N2C[C@H](N)CCN2C)cc2nc(-c3cc4ccc([C@@H](C)NC(=O)c5cccnc5)nc4n3CC3CC3)n(C)c12` [Example 201, N-((R)-1-(2-(5-((R)-5-amino-2-methylhexahydropyridazine-1-carbonyl)-7-methoxy-1-methyl-1H-benzo[d]imidazol-2-yl)-1-(cyclopropylmethyl)-1H-pyrrolo[2,3-b]pyridin-6-yl)ethyl)nicotinamide], 67.7 nM. For `COc1cc(C(=O)N2[C@H]3CC[C@@H]2[C@H](N)C3)cc2nc(-c3cc4ccc([C@@H](C)NC(=O)[C@@H]5CC5(F)F)nc4n3CC3CC3)n(C)c12` [Example 202, (S)-N-((R)-1-(2-(5-((1R,2R,4S)-2-amino-7-azabicyclo[2.2.1]heptane-7-carbonyl)-7-methoxy-1-methyl-1H-benzo[d]imidazol-2-yl)-1-(cyclopropylmethyl)-1H-pyrrolo[2,3-b]pyridin-6-yl)ethyl)-2,2-difluorocyclopropane-1-carboxamide], the IC50 turned out to be 58.7 nM.

As for `COc1cc(C(=O)N2[C@H]3CC[C@@H]2[C@H](N)C3)cc2nc(-c3cc4ccc([C@@H](C)NC(=O)c5ccccc5C(F)F)nc4n3CC3CC3)n(C)c12` [Example 203, N-((R)-1-(2-(5-((1R,2R,4S)-2-amino-7-azabicyclo[2.2.1]heptane-7-carbonyl)-7-methoxy-1-methyl-1H-benzo[d]imidazol-2-yl)-1-(cyclopropylmethyl)-1H-pyrrolo[2,3-b]pyridin-6-yl)ethyl)-2-(difluoromethyl)benzamide], the IC50 is 155 nM.

With `COc1cc(C(=O)N2[C@H]3CC[C@@H]2[C@H](N)C3)cc2nc(-c3cc4ccc([C@@H](C)NC(=O)C5CC(F)(F)C5)nc4n3CC3CC3)n(C)c12` [Example 204, N-((R)-1-(2-(5-((1R,2R,4S)-2-amino-7-azabicyclo[2.2.1]heptane-7-carbonyl)-7-methoxy-1-methyl-1H-benzo[d]imidazol-2-yl)-1-(cyclopropylmethyl)-1H-pyrrolo[2,3-b]pyridin-6-yl)ethyl)-3,3-difluorocyclobutane-1-carboxamide], the IC50 amounted to 47.4 nM.

Regarding `COc1cc(C(=O)N2[C@H]3CC[C@@H]2[C@H](N)C3)cc2nc(-c3cc4ccc([C@@H](C)NC(=O)c5cnn(C(F)F)c5)nc4n3CC3CC3)n(C)c12` [Example 205, N-((R)-1-(2-(5-((1R,2R,4S)-2-amino-7-azabicyclo[2.2.1]heptane-7-carbonyl)-7-methoxy-1-methyl-1H-benzo[d]imidazol-2-yl)-1-(cyclopropylmethyl)-1H-pyrrolo[2,3-b]pyridin-6-yl)ethyl)-1-(difluoromethyl)-1H-pyrazole-4-carboxamide], the IC50 is 79.7 nM. Take `COc1cc(C(=O)N2[C@H]3CC[C@@H]2[C@H](N)C3)cc2nc(-c3cc4ccc([C@@H](C)NC(=O)c5cnn(C)c5)nc4n3CC3CC3)n(C)c12` [Example 206, N-((R)-1-(2-(5-((1R,2R,4S)-2-amino-7-azabicyclo[2.2.1]heptane-7-carbonyl)-7-methoxy-1-methyl-1H-benzo[d]imidazol-2-yl)-1-(cyclopropylmethyl)-1H-pyrrolo[2,3-b]pyridin-6-yl)ethyl)-1-methyl-1H-pyrazole-4-carboxamide]: the IC50 was found to be 45.5 nM.

Turning to `COc1cc(C(=O)N2[C@H]3CC[C@@H]2[C@H](N)C3)cc2nc(-c3cc4ccc([C@@H](C)NC(=O)C5(C(F)(F)F)CC5)nc4n3CC3CC3)n(C)c12` [Example 207, N-((R)-1-(2-(5-((1R,2R,4S)-2-amino-7-azabicyclo[2.2.1]heptane-7-carbonyl)-7-methoxy-1-methyl-1H-benzo[d]imidazol-2-yl)-1-(cyclopropylmethyl)-1H-pyrrolo[2,3-b]pyridin-6-yl)ethyl)-1-(trifluoromethyl)cyclopropane-1-carboxamide], the IC50 came out at 240 nM. As for `COc1cc(C(=O)N2[C@H]3CC[C@@H]2[C@H](N)C3)cc2nc(-c3cc4ccc([C@@H](C)NC(=O)c5ccc(F)cc5)nc4n3CC3CC3)n(C)c12` [Example 208, N-((R)-1-(2-(5-((1R,2R,4S)-2-amino-7-azabicyclo[2.2.1]heptane-7-carbonyl)-7-methoxy-1-methyl-1H-benzo[d]imidazol-2-yl)-1-(cyclopropylmethyl)-1H-pyrrolo[2,3-b]pyridin-6-yl)ethyl)-4-fluorobenzamide], the figure is 138 nM; as for `COc1cc(C(=O)N2C[C@H](N)CCN2C)cc2nc(-c3cc4ccc(C(C)(C)NC(=O)c5ccccc5)nc4n3CC3CC3)n(C)c12` [Example 209], 199 nM.

These data come from US11878965B2, “Inhibitors of peptidylarginine deiminases” (Gilead Sciences, Inc., priority 2020, dated 2024).
